Among the data in PubChem BioAssay AID1259407 (Chemical Carcinogenesis Research Information System (CCRIS), 2018) are mutagenic call values, retold here.

Active and inactive are the calls of the source. No rule for the calls is given here.

The data set has as its system CCRIS mutagenicity, Ames/micronucleus/aberration tests. As to the kind of experiment: CCRIS mutagenicity studies. The conditions noted are these: Test System: AMES SALMONELLA TYPHIMURIUM
Setting [1] is: Strain/Indicator: TA97, Metabolic Activation: NONE, Method: STANDARD PLATE.
Setting [2] is: Strain/Indicator: TA97, Metabolic Activation: RAT, LIVER, S-9, AROCLOR 1254, Method: STANDARD PLATE.
The mark [3] stands for this setting: Strain/Indicator: TA98, Metabolic Activation: NONE, Method: STANDARD PLATE.
The mark [4] stands for this setting: Strain/Indicator: TA98, Metabolic Activation: RAT, LIVER, S-9, AROCLOR 1254, Method: STANDARD PLATE.
The mark [5] stands for this setting: Strain/Indicator: TA100, Metabolic Activation: NONE, Method: STANDARD PLATE.
Where [6] appears, read: Strain/Indicator: TA100, Metabolic Activation: RAT, LIVER, S-9, AROCLOR 1254, Method: STANDARD PLATE.
[7] abbreviates: Strain/Indicator: TA97, Metabolic Activation: HAMSTER, LIVER, S-9, AROCLOR 1254 (10%), Method: PREINCUBATION
Where [8] appears, read: Strain/Indicator: TA97, Metabolic Activation: NONE, Method: PREINCUBATION
Setting [9] is: Strain/Indicator: TA97, Metabolic Activation: RAT, LIVER, S-9, AROCLOR 1254 (10%), Method: PREINCUBATION
Setting [10] is: Strain/Indicator: TA98, Metabolic Activation: HAMSTER, LIVER, S-9, AROCLOR 1254 (10%), Method: PREINCUBATION
[11] abbreviates: Strain/Indicator: TA98, Metabolic Activation: NONE, Method: PREINCUBATION
The mark [12] stands for this setting: Strain/Indicator: TA98, Metabolic Activation: RAT, LIVER, S-9, AROCLOR 1254 (10%), Method: PREINCUBATION
[13] abbreviates: Strain/Indicator: TA100, Metabolic Activation: HAMSTER, LIVER, S-9, AROCLOR 1254 (10%), Method: PREINCUBATION
Setting [14] is: Strain/Indicator: TA100, Metabolic Activation: NONE, Method: PREINCUBATION
Where [15] appears, read: Strain/Indicator: TA100, Metabolic Activation: RAT, LIVER, S-9, AROCLOR 1254 (10%), Method: PREINCUBATION
Where [16] appears, read: Strain/Indicator: TA1535, Metabolic Activation: HAMSTER, LIVER, S-9, AROCLOR 1254 (10%), Method: PREINCUBATION
Setting [17] is: Strain/Indicator: TA1535, Metabolic Activation: NONE, Method: PREINCUBATION
Where [18] appears, read: Strain/Indicator: TA1535, Metabolic Activation: RAT, LIVER, S-9, AROCLOR 1254 (10%), Method: PREINCUBATION
Setting [19] is: Strain/Indicator: TA1537, Metabolic Activation: HAMSTER, LIVER, S-9, AROCLOR 1254 (10%), Method: PREINCUBATION
The mark [20] stands for this setting: Strain/Indicator: TA1537, Metabolic Activation: NONE, Method: PREINCUBATION

`CC(=O)Oc1ccccc1C(=O)Oc1ccccc1C(=O)O`: the mutagenic call is “inactive; negative” under setting [1]; “inactive; negative” under setting [2]; “inactive; negative” under setting [3]; “inactive; negative” under setting [4]; “inactive; negative” under setting [5]; “inactive; negative” under setting [6]. The mutagenic call (Strain/Indicator: TA1535, Metabolic Activation: NONE, Method: STANDARD PLATE) is “inactive; negative”; the mutagenic call (Strain/Indicator: TA1535, Metabolic Activation: RAT, LIVER, S-9, AROCLOR 1254, Method: STANDARD PLATE) is “inactive; negative”; the mutagenic call (Strain/Indicator: TA1537, Metabolic Activation: NONE, Method: STANDARD PLATE) was “inactive; negative”; the mutagenic call (Strain/Indicator: TA1537, Metabolic Activation: RAT, LIVER, S-9, AROCLOR 1254, Method: STANDARD PLATE) was “inactive; negative”; the mutagenic call (Strain/Indicator: TA1538, Metabolic Activation: NONE, Method: STANDARD PLATE) was “inactive; negative”; the mutagenic call (Strain/Indicator: TA1538, Metabolic Activation: RAT, LIVER, S-9, AROCLOR 1254, Method: STANDARD PLATE) was “inactive; negative”.
For the compound `Cc1cccc(N)c1C`, the mutagenic call was “inactive; negative” under setting [7]; “inactive; negative” under setting [8]; “inactive; negative” under setting [9]; “active; positive” under setting [10]; “inactive; negative” under setting [11]; “inactive; negative” under setting [12]. Also, the mutagenic call under setting [13] is “active; positive”; the mutagenic call under setting [14] was “inactive; negative”; the mutagenic call under setting [15] was “inactive; negative”; the mutagenic call under setting [16] was “inactive; negative”; the mutagenic call under setting [17] is “inactive; negative”; the mutagenic call under setting [18] was “inactive; negative”.
Regarding `CCCCCCCCCCCC(=O)O`, the mutagenic call reads like this: under setting [7], “inactive; negative”; (Strain/Indicator: TA97, Metabolic Activation: HAMSTER, LIVER, S-9, AROCLOR 1254 (30%), Method: PREINCUBATION) “inactive; negative”; under setting [8], “inactive; negative”; under setting [9], “inactive; negative”; (Strain/Indicator: TA97, Metabolic Activation: RAT, LIVER, S-9, AROCLOR 1254 (30%), Method: PREINCUBATION) “inactive; negative”; (Strain/Indicator: TA98, Metabolic Activation: HAMSTER, LIVER, S-9, AROCLOR 1254 (10 OR 30%), Method: PREINCUBATION) “inactive; negative”. The mutagenic call is “inactive; negative” under setting [11]; “inactive; negative” under setting [12]; “inactive; negative” (Strain/Indicator: TA98, Metabolic Activation: RAT, LIVER, S-9, AROCLOR 1254 (30%), Method: PREINCUBATION); “inactive; negative” (Strain/Indicator: TA100, Metabolic Activation: HAMSTER, LIVER, S-9, AROCLOR 1254 (10 OR 30%), Method: PREINCUBATION); “inactive; negative” under setting [14]; “inactive; negative” under setting [15]. The mutagenic call was “inactive; negative” (Strain/Indicator: TA100, Metabolic Activation: RAT, LIVER, S-9, AROCLOR 1254 (30%), Method: PREINCUBATION); “inactive; negative” under setting [16]; “inactive; negative” (Strain/Indicator: TA1535, Metabolic Activation: HAMSTER, LIVER, S-9, AROCLOR 1254 (30%), Method: PREINCUBATION); “inactive; negative” under setting [17]; “inactive; negative” under setting [18]; “inactive; negative” (Strain/Indicator: TA1535, Metabolic Activation: RAT, LIVER, S-9, AROCLOR 1254 (30%), Method: PREINCUBATION). In addition, the mutagenic call is, setting by setting: under setting [19], “inactive; negative”; (Strain/Indicator: TA1537, Metabolic Activation: HAMSTER, LIVER, S-9, AROCLOR 1254 (30%), Method: PREINCUBATION) “inactive; negative”; under setting [20], “inactive; negative”; (Strain/Indicator: TA1537, Metabolic Activation: RAT, LIVER, S-9, AROCLOR 1254 (30%), Method: PREINCUBATION) “inactive; negative”.
Consider `O=Nc1ccc(NNc2ccccc2)cc1`, for which the mutagenic call was “active; positive” under setting [4] and “active; positive” under setting [6].
As to `CC(C)C(=O)N(O)c1ccc(Cl)cc1`, the mutagenic call is, setting by setting: under setting [3], “inactive; negative”; under setting [4], “active; positive”; under setting [5], “inactive; negative”; under setting [6], “inactive; negative”.
Regarding `CC[C@H]1CN2CCc3cc(OC)c(OC)cc3[C@@H]2C[C@@H]1C[C@H]1NCCc2cc(OC)c(OC)cc21`, the mutagenic call was “inactive; negative” under setting [10]; “inactive; negative” under setting [11]; “inactive; negative” under setting [12]; “inactive; negative” under setting [13]; “inactive; negative” under setting [14]; “inactive; negative” under setting [15]. The mutagenic call is “inactive; negative” under setting [16]; “inactive; negative” under setting [17]; “inactive; negative” under setting [18]; “inactive; negative” under setting [19]; “inactive; negative” under setting [20]; “inactive; negative” (Strain/Indicator: TA1537, Metabolic Activation: RAT, LIVER, S-9, AROCLOR 1254 (10%), Method: PREINCUBATION).
`CC1NC(C(=O)O)Cc2c1[nH]c1ccccc21` (stereo not given): the mutagenic call under setting [1] was “inactive; negative”; the mutagenic call under setting [2] was “inactive; negative”; the mutagenic call under setting [3] is “inactive; negative”; the mutagenic call under setting [4] is “inactive; negative”; the mutagenic call under setting [5] is “inactive; negative”; the mutagenic call under setting [6] is “inactive; negative”.
